Results reported in US20070015786A1, “Treatment of hot flashes, impulse control disorders and personality change due to a general medical condition” (Eli Lily and Company, priority 2003, published 2007).
Several values for one entry are separate records, joined by “and”; a condition that tells them apart may be missing. Identical values can stand only once.

Test system: ovariectomized Sprague-Dawley rats
Experiment: Morphine withdrawal rat hot flush model (naloxone-induced tail skin temperature rise)
Assay type: in vivo
Details: for morphine withdrawal hot flush model responsive to agent: data not shown
Description: Simpkins et al. ((1983) Life Sci. 32:1957-1966) first published morphine withdrawal in the rat as a putative model for hot flushes, based on observations highlighting the similarity of symptoms of gonadal steroid withdrawal to those of opioid withdrawal. Although less severe, the signs and symptoms associated with clinical hot flushes, or estrogen deficiency, in the rat parallel those produced by naloxone-precipitated withdrawal in morphine dependent rats, including: 1) an increase in tail skin temperature; 2) a surge in luteinizing hormone; and 3) an increase in heart rate. Each of these responses is associated with an increase in sympathetic outflow, which is a current mechanistic hypothesis for hot flushes.
In this example, a modification of the original procedure of Simpkins et al. (1983) is used, employing ovariectomized Sprague-Dawley rats. Animals at 60 days of age (or 200-225 grams) are ovariectomized, and allowed a 14-day rest period to insure surgical recovery and clearance of endogenous ovarian hormones. Test compound administration (po or sc) is initiated on day 14 post-ovariectomy in a volume of 1 ml/kg. Once daily administration of test compounds continues through the end of the experiment. On days 15 and 17 post-ovariectomy, the rats are lightly anesthetized with isoflurane and a single 75 mg morphine (free base) pellet is surgically implanted subcutaneously.
On day 21 post-ovariectomy, animals are given ketamine (80 mg/kg; IM) 2 hours after final administration of the test compound. Following induction of the anesthesia, rats are then placed in individual plexiglass cages and temperature sensitive probes are applied to the dorsal side of the tail base. Temperature monitoring is initiated 30 minutes after administration of ketamine, and is recorded every 15 seconds for a 1-hr period. To induce morphine withdrawal, 1 mg/kg naloxone is given subcutaneously 15 minutes after start of temperature monitoring. A sharp rise in tail skin temperature typically occurs within 5 minutes post-naloxone injection, and two quantitative endpoints are made: 1) tail skin temperature at 15 minutes post-naloxone, and 2) area under the temperature response curve for the 45 minute post-naloxone measurement period.
Ethinyl estradiol is dosed orally at 0.3 mg/kg as a positive control. […] Using area under the curve measurements, the response induced by each compound is calculated as a percent inhibition of temperature increase versus the morphine control.

CCOc1ccccc1OC(c1ccccc1)C1CNCCO1 (racemic) [reboxetine]
% Inhibition vs. Morphine Control (rat, in vivo, sc, 5 mg/kg): 94%

CCOc1ccccc1OC(c1ccccc1)C1CNCCO1 [(R,S)-Reboxetine, (R,S)-reboxetine]
% Inhibition vs. Morphine Control (rat, in vivo, sc, 5 mg/kg): 94%

CNCCCN1c2ccccc2CCc2ccccc21 [Desipramine, desipramine]
% Inhibition vs. Morphine Control (PO, 10 mg/kg, area under the tail skin temperature curve, 45 min post-naloxone): 101% | % Inhibition vs. Morphine Control (PO, 10 mg/kg, area under the tail skin temperature curve, 45 min post-naloxone, listed as desipramine): 101%

C#C[C@]1(O)CC[C@H]2[C@@H]3CCc4cc(O)ccc4[C@H]3CC[C@@]21C [Ethinyl Estradiol, Ethinyl estradiol]
% Inhibition vs. Morphine Control (PO, 0.3 mg/kg, area under the tail skin temperature curve, 45 min post-naloxone): 89% and 73% and 90% | % Inhibition vs. Morphine Control (PO, 0.3 mg/kg, area under the tail skin temperature curve, 45 min post-naloxone, listed as Ethinyl estradiol): 70-90%

Clc1cccc(Cl)c1N=C1NCCN1 [clonidine]
morphine withdrawal hot flush model responsive to agent: responsive

C#C[C@]1(O)CC[C@H]2[C@@H]3[C@H](C)CC4=C(CCC(=O)C4)[C@H]3CC[C@@]21C [tibolone]
morphine withdrawal hot flush model responsive to agent: responsive

medroxyprogesterone
morphine withdrawal hot flush model responsive to agent: responsive
